From US7109213B2, “Aminopiperidine compounds, process for their preparation, and pharmaceutical compositions containing them” (Glaxo Group Limited, priority 2002, dated 2006)

What was measured:
Test in all cases: MIC of test compounds against various organisms
Format in all cases: cell-based
[1] = system: E. coli 7623; conditions: Escherichia coli, range stated for all organisms of the panel
Description: (§1) The MIC (μg/ml) of test compounds against various organisms may be determined: S. epidermidis CL7, S. aureus WCUH29, S. pneumoniae 1629, S. pyogenes CN10, H. influenzae ATCC49247, E.faecalis 2, E. faecium 8, M. catarrhalis Ravisio, E. coli 7623.

[2] = system: E. faecium 8; conditions: Enterococcus faecium, range stated for all organisms of the panel
Description: as §1

[3] = system: E.faecalis 2; conditions: Enterococcus faecalis, range stated for all organisms of the panel
Description: as §1

[4] = system: H. influenzae ATCC49247; conditions: Haemophilus influenzae, range stated for all organisms of the panel
Description: as §1

[5] = system: M. catarrhalis Ravisio; conditions: Moraxella catarrhalis, range stated for all organisms of the panel
Description: as §1

[6] = system: S. aureus WCUH29; conditions: Staphylococcus aureus, range stated for all organisms of the panel
Description: as §1

[7] = system: S. epidermidis CL7; conditions: Staphylococcus epidermidis, range stated for all organisms of the panel
Description: as §1

[8] = system: S. pneumoniae 1629; conditions: Streptococcus pneumoniae, range stated for all organisms of the panel
Description: as §1

[9] = system: S. pyogenes CN10; conditions: Streptococcus pyogenes, range stated for all organisms of the panel
Description: as §1

MIC [1]: 0.06 to 16 µg/mL
MIC [2]: 0.06 to 16 µg/mL
MIC [3]: 0.06 to 16 µg/mL
MIC [4]: 0.06 to 16 µg/mL
MIC [5]: 0.06 to 16 µg/mL
MIC [6]: 0.06 to 16 µg/mL
MIC [7]: 0.06 to 16 µg/mL
MIC [8]: 0.06 to 16 µg/mL
MIC [9]: 0.06 to 16 µg/mL
Structure (SMILES): COc1ccc2nccc([C@@H](O)CN3CCC(NCc4cnc5snnc5c4)C(F)C3)c2n1 (single isomer, unassigned) [Example 3]
